Experimental data reported in patent publication EP4810494A1, “HPK1 DEGRADATION AGENT AND USE THEREOF IN FIELD OF MEDICINE” (Haisco Pharmaceutical Group Co., Ltd., priority 2023, dated 2025).
Structures can show the parent of a compound that is named as a salt.

Legend:
[1] = target: T1, HPK1 kinase (Homo sapiens, UniProt Q92918); test: HPK1 kinase assay (Km concentration ATP); type: biochemical; details: for IC50: ATP at Km concentration (working concentration: 9 µM); for inhibitory activity against HPK1 kinase (in words): Km concentration ATP, conclusion
T1 construct: purchased Carna 07-410
T1 sequence (Q92918 1-346 limits assumed): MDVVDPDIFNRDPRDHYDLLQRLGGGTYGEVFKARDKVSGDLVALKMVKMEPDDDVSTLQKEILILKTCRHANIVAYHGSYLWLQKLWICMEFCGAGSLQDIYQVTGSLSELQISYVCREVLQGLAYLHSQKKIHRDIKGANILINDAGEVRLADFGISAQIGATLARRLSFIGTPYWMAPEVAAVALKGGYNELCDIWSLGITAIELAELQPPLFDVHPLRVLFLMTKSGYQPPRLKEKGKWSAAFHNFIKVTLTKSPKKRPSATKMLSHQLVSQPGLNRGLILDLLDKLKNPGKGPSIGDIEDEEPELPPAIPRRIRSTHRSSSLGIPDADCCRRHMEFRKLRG
Protocol: Test example 3: HPK1 kinase assay (Km concentration ATP)
(§1) The kinase HPK1 (Carna, Cat.No 07-410) was prepared into 2× kinase solution using 1× kinase buffer. The substrate Fluorescein-PKC (Invitrogen, Cat. No. PV3506) and ATP (working concentration: 9 µM) (Sigma, Cat. No. 2383-5G) were prepared into 2× substrate solution using 1×kinase buffer. The detection reagent was diluted to 2-fold the final concentration using an antibody diluent. 100 nL of compounds at different concentrations and 5 µL of kinase solution were added to each well of a 384-well plate, and the mixture was incubated at room temperature for 10 minutes. After the incubation was completed, 5 µL of substrate solution was added to each well, and the resulting mixture was reacted at room temperature for 90 minutes. After the reaction was completed, 10 µL of detection reagent was added to each well to terminate the reaction, and the mixture was incubated at room temperature for 60 minutes. Fluorescence readings were detected using an Envision instrument with excitation at 320 nm and emission at 520 nm and 495 nm. IC50 value was calculated using XLFit excel add-in version 5.4.0.8 software. The calculation formula of the inhibition rate was shown in formula 3-1, where max is the Ratio of the DMSO control, min is the Ratio of the negative control without enzyme, and sample is the Ratio of the compound. Ratio = RFU520nm /RFU495nm [formula] Inhibition% = (max−sample)/(max−min) × 100% [formula] Table 3-1 Inhibitory activity of test compounds against HPK1 kinase

[2] = Pharmacokinetic test in mice; type: in vivo, ICR mice; details: mouse, plasma, po, i. g.
Protocol: Test example 6: Pharmacokinetic test in mice
Experimental objective: In this experiment, a single dose of test substances was administered to ICR mice intravenously and intragastrically, the concentrations of the test compounds in plasma of mice were measured, and the pharmacokinetic characteristics and bioavailability of the test compounds in mice were evaluated.
Experimental animals: Male ICR mice, 20-35 g, purchased from Chengdu Dossy Experimental Animals Co., Ltd. (SCXK (CHUAN) 2020-030).
Experimental method: On the day of the experiment, the ICR mice were randomly grouped according to their body weights. The animals were fasted but with water available overnight before the administration, and fed 4 h after the administration.
Sampling: Blood was taken from the orbits of the mice at specified time points, and placed in an EDTAK2 centrifuge tube. Centrifugation was performed at 5000 rpm at 4°C for 10 min, and the plasma was collected.
Time points for plasma collection in G1 and G1-2 groups: 0, 5 min, 15 min, 30 min, 1 h, 2 h, 4 h, 7 h, and 24 h.
Time points for plasma collection in G2 and G2-2 groups: 0, 5 min, 15 min, 30 min, 1 h, 2 h, 4 h, 7 h, and 24 h.
Before analysis and detection, all the samples were stored at -60°C or lower. The samples were analysed quantitatively by LC-MS/MS. Table 6-1 PK data of test compound drug in mice

[3] = target: T2, HPK1 protein (Homo sapiens, UniProt Q92918); test: Detection of HPK1 protein expression level in Jurkat cells (24 h); type: cell-based; details: 24 hours incubation
T2 construct: host or cells: Jurkat cells
Protocol: Test example 4: Detection of HPK1 protein expression level in Jurkat cells (24 h)
Jurkat cells from ATCC were placed in a RPMI-1640 complete medium (supplemented with 10% FBS and 1% penicillin-streptomycin solution) and cultured at 37°C and 5% CO2. The cells in the logarithmic growth phase were collected, the cell density was adjusted to 5 × 10^5 cells/well with the culture medium, and the cells were added to a 6-well cell culture plate at a volume of 1 mL/well. The compound to be tested was prepared to 2-fold the final concentration, 1 mL of the compounds at different concentrations were added to administration wells, a medium containing 0.2% DMSO was added to control wells, and the plate was incubated at 37°C and 5% CO2 for 24 hours. The cells were collected into a 1.5 mL centrifuge tube, 30 µL of RIPA lysis buffer (containing 1X protease inhibitor cocktail) was added, and the cells were lysed on ice for 15 minutes and centrifuged at 12000 rpm/min at 4°C for 10 minutes. The supernatant was collected and the protein content was determined using the BCA method. The protein sample to be tested was diluted to 0.2 mg/mL, HPK1 was detected using a fully automated protein expression quantitative analyser (ProteinSimple), and the internal reference protein was β-actin (all antibodies were from CST). The software (Compass for SW) of the fully automated protein expression quantitative analyser was used to process the raw data and calculate the peak area after internal reference normalisation and the HPK1 degradation rate relative to the control group. The HPK1 degradation rate was calculated according to formula 4-1, where Aadministration well is the relative peak area of the administration group after internal reference normalisation, and Acontrol well is the relative peak area of the vehicle control group after internal reference normalisation. DC50 values were calculated using a four-parameter non-linear fitting model in Graphpad 8.3.0 software. HPK1_degradation % = 100−(Aadministration well/Acontrol well×100%) [formula] Table 4-1 Degradation activity of test compounds against HPK1 protein in Jurkat cells (24 h)

[4] = Pharmacokinetic test in rats; type: in vivo, SD rats; details: rat, plasma
Protocol: Test example 7: Pharmacokinetic test in rats
Experimental animals: Male SD rats, 180-200 g, purchased from Chengdu Dossy Experimental Animals Co., Ltd. with the laboratory animal production license number of SCXK (CHUAN) 2020-030.
Experimental design: on the day of the experiment, the SD rats were randomly grouped according to their body weights. The animals were fasted but with water available overnight before the administration, and fed 4 h after the administration.
Vehicle for intragastric administration: 5% Solutol+5% TPGS+30% PEG400+60% (20% SBE-β-CD)
Blood was taken from the orbits of the […] at specified time points, and placed in an EDTAK2 centrifuge tube. Centrifugation was performed at 5000 rpm for 10 min, and the plasma was collected.
Blood sampling time points for the intravenous administration group were: 0, 5 min, 15 min, 30 min, 1 h, 2 h, 4 h, 6 h, 8 h and 24 h; blood sampling time points for the intragastric administration group were: 0, 5 min, 15 min, 30 min, 1 h, 2 h, 4 h, 6 h, 8 h and 24 h. Before analysis and detection, all the samples were stored at - 60°C or lower. The samples were analysed quantitatively by LC-MS/MS. Table 7-1 PK data of test compound drug in rats

[5] = system: IL-2 secretion by T cells; test: IL-2 detection assay in cells (ELISA, pan-T cells isolated from PBMCs); type: cell-based; details: IL-2, CD3 antibody-coated plate, 24 hours; for Maximum activation fold: maximum activation rate/control group
Protocol: 9. IL-2 detection assay in cells
Activating effect of compounds on IL-2 secretion by T cells was evaluated using the ELISA method. Frozen PBMCs were thawed, and pan-T cells were isolated and purified using a T cell sorting kit (Stemcell, 17951). The cells were resuspended in 1640 complete medium and incubated in a 37°C&5%CO2 incubator overnight. A 96-well plate coated with an anti-human CD3 antibody (Thermo, 16-0037-38) at a final concentration of 5 µg/mL was incubated at 37°C for 2 h. The overnight-cultured cells were collected by centrifugation, the supernatant was discarded, and the cells were resuspended in 1640 complete medium, and seeded in the CD3 antibody-coated 96-well plate at a density of 10^5cells/well. The compounds at different concentrations were added, and the mixture was incubated in a 37°C&5%CO2 incubator for 24 hours. After the incubation was completed, the resulting mixture was centrifuged at 1000 rpm for 1 minute to collect the supernatant, and IL-2 was detected according to the ELISA instructions. DMSO without compounds was used as the control group to calculate the activation rate of the compounds, and prism was used to fit the activation curve. Maximum activation fold = maximum activation rate/control group. Table 9-1 Results of IL-2 activation by test compounds

[6] = target: T1, HPK1 kinase; test: HPK1 kinase assay (1 mM ATP); type: biochemical
Protocol: Test example 5: HPK1 kinase assay (1 mM ATP)
as §1, with “1 mM)” for “9 µM)”, “5-1, wherein” for “3-1, where”, “5-1” for “3-1”

T2 sequence (Q92918 whole entry): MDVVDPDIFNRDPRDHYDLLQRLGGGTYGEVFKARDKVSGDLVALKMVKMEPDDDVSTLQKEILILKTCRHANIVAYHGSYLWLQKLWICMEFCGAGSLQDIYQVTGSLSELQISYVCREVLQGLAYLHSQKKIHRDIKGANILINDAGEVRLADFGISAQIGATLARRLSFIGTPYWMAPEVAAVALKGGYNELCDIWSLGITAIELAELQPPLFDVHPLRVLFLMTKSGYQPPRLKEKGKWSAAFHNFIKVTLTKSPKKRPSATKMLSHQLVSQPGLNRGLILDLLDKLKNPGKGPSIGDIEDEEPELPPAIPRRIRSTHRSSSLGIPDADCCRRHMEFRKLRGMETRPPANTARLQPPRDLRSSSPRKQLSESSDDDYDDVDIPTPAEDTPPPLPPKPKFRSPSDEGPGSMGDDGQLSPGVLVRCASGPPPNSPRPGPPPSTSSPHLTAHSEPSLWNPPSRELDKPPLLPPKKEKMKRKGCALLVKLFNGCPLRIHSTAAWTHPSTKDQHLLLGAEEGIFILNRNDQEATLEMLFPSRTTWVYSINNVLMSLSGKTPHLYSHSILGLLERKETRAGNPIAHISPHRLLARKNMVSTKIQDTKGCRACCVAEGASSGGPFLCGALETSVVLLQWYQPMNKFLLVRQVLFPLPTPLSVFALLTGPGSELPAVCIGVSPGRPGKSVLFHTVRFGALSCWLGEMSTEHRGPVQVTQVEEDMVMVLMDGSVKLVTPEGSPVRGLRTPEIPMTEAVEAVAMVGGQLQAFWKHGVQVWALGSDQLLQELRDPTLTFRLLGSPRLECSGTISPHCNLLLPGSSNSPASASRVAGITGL

Row | SMILES | AUC ([2]; 10 mg/kg) [ng·h/mL] | Cmax ([2]; 10 mg/kg) [ng/mL] | half-life ([2]; 10 mg/kg) [h] | DC50 [3] [nM] | Activation fold at 100 nM concentration [5] | Maximum activation fold [5] | IC50 [6] [nM] | other results
1 | O=C1CCC(c2ccc(N3CCN(CC4CCN(c5ccc(Nc6ccc(-c7cnc8cc(F)ccn78)c7c6C(=O)NC7)nc5)CC4)CC3)cc2F)C(=O)N1 (racemic) [Trifluoroacetic acid salt of compound 1] | 14700 | 1070 | 6.73 | < 20 |  |  |  | IC50 [1]: < 10 nM; inhibitory activity against HPK1 kinase (in words) [1]: good inhibitory activity
2 | O=C1CCC(c2cc3c(cc2F)N2CCN(CC4CCN(c5ccc(Nc6ccc(-c7cnc8cc(F)ccn78)c7c6C(=O)NC7)nc5)CC4)C[C@H]2CC3)C(=O)N1 (stereo partly drawn) [Trifluoroacetic acid salt of compound 3] |  |  |  | < 20 |  |  |  | IC50 [1]: < 10 nM; inhibitory activity against HPK1 kinase (in words) [1]: good inhibitory activity
3 | O=C1CCN(c2cc3c(cc2F)N2CCN(C4CC5(CCN(c6ccc(Nc7ccc(-c8cnc9cc(F)ccn89)c8c7C(=O)NC8)nc6)CC5)C4)C[C@H]2CC3)C(=O)N1 [Trifluoroacetic acid salt of compound 19] | 50500 | 3700 | 6.68 | < 20 | >10 | >10 | < 50 | clearance ([4]; IV, 2.5 mg/kg): 11 mL/min/kg; half-life ([4]; IV, 2.5 mg/kg): 7.66 h; AUC ([4]; po, i. g., 10 mg/kg): 5860 ng·h/mL; Cmax ([4]; po, i. g., 10 mg/kg): 465 ng/mL; half-life ([4]; po, i. g., 10 mg/kg): 7.17 h
4 | N#Cc1ccn2c(-c3ccc(Nc4ccc(N5CCC(CN6CCN7c8cc(F)c(N9CCC(=O)NC9=O)cc8CC[C@@H]7C6)CC5)cn4)c4c3CNC4=O)cnc2c1 [Trifluoroacetic acid salt of compound 31] |  |  |  | < 20 | >10 | >10 | < 50 | clearance ([4]; IV, 1 mg/kg): 5.38 mL/min/kg; half-life ([4]; IV, 1 mg/kg): 4.88 h; AUC ([4]; po, i. g., 5 mg/kg): 4390 ng·h/mL; Cmax ([4]; po, i. g., 5 mg/kg): 464 ng/mL; half-life ([4]; po, i. g., 5 mg/kg): 4.48 h; AUC ([2]; 5 mg/kg): 6500 ng·h/mL; Cmax ([2]; 5 mg/kg): 553 ng/mL; half-life ([2]; 5 mg/kg): 3.03 h
5 | Cn1ccc2c(-c3ccc(Nc4ccc(N5CCC(CN6CCN7c8cc(F)c(N9CCC(=O)NC9=O)cc8CC[C@@H]7C6)CC5)cn4)c4c3CNC4=O)ccnc21 [Trifluoroacetic acid salt of compound 32] | 15800 | 1250 | 4.37 | < 20 |  | >10 | < 50 | 
6 | Cn1ccc2c(-c3ccc(Nc4ccc(N5CCC(CN6CCN7c8cc(F)c(N9CCC(=O)NC9=O)cc8CC[C@H]7C6)CC5)cn4)c4c3CNC4=O)ccnc21 [Trifluoroacetic acid salt of compound 35] | 37100 | 2650 | 12.1 | < 20 |  | >10 | < 50 | 
7 | N#Cc1ccn2c(-c3ccc(Nc4ccc(N5CCC(CN6CCN7c8cc(F)c(N9CCC(=O)NC9=O)cc8CC[C@H]7C6)CC5)cn4)c4c3CNC4=O)cnc2c1 [Trifluoroacetic acid salt of compound 39] | 25600 | 2070 | 3.75 | < 20 | >10 | >10 | < 50 | clearance ([4]; IV, 2.5 mg/kg): 6.58 mL/min/kg; half-life ([4]; IV, 2.5 mg/kg): 4.21 h; AUC ([4]; po, i. g., 10 mg/kg): 7260 ng·h/mL; Cmax ([4]; po, i. g., 10 mg/kg): 777 ng/mL; half-life ([4]; po, i. g., 10 mg/kg): 4.55 h
